Measured values reported in patent publication US20140050779A1, “[…]-2 INHIBITORS AND USES THEREOF” (SINGAPORE HEALTH SERVICES PTE. LTD., priority 2011, published 2014).
Entries after “also recorded” stand apart in the source; their conditions may differ.

Key:
TG-3 [1] = test: Western blot of TG proteins in human scleral fibroblasts after muscarinic agents; assay type: cell-based; conditions: 0.01-10 μM for 5 days
[2] = system: TGase 2 (TGM-2) transcript; test: qPCR of TGases mRNA in mouse scleral fibroblasts after muscarinic agents; assay type: cell-based; conditions: 0.01-10 μM for 5 days, qPCR normalized to GAPDH
Description: P2 cultured mouse scleral fibroblasts were treated with atropine or carbachol at different concentrations of 0.01 μM, 0.1 μM, […], 5 μM and 10 μM for 5 days. Following 5 days of treatment, the total RNA was extracted from these cells and TGases transcript level was quantified via qPCR analysis. Height of bars show the means of three independent samples and error bars represent standard deviation. Values are normalized against GAPDH house keeping genes.
Murine scleral derived fibroblasts were cultured to passage 2 and treated to exogenous atropine or carbachol at 0.01 μM, 0.1 μM, 1 μM, 5 μM and 10 μM for 5 days. Following 5 days of treatment, the total RNA was extracted from these cells and RT-qPCR performed to determine transcript levels of TGM-2. The levels were normalized to GAPDH internal control. […] Height of bars or symbols represents mean and error bars SD. *: p<0.05 and **: p<0.001.
All cells used in examples described herein were between passages 2-4. Passaged cells were plated at a concentration of 2×10^5/mL into 6 well plates containing DMEM with 10% FBS. The cells were seen to attach to the bottom of the culture wells after 4 hours. […] The supernatant was poured into a new eppendorf tube and cell concentrations were determined using the Dc Protein assay Kit (Bio-Rad, MA). […] Cell lysate was collected for relative quantitative (q) PCR and protein analysis at day 5. […]

TG-5 = test: Western blot of TG proteins in mouse scleral fibroblasts after muscarinic agents; assay type: cell-based; conditions: 0.01-10 μM for 5 days
TG-3 [3] = test: as above; assay type: cell-based; conditions: 0.01-10 μM for 5 days
TG-1 = test: as above; assay type: cell-based; conditions: 0.01-10 μM for 5 days
hM1 = target: T1, hM1 (Homo sapiens, UniProt P11229); test: himbacine binding to cloned muscarinic receptor subtypes; conditions: cloned receptor subtype; data not shown
T1 sequence (P11229 1-460): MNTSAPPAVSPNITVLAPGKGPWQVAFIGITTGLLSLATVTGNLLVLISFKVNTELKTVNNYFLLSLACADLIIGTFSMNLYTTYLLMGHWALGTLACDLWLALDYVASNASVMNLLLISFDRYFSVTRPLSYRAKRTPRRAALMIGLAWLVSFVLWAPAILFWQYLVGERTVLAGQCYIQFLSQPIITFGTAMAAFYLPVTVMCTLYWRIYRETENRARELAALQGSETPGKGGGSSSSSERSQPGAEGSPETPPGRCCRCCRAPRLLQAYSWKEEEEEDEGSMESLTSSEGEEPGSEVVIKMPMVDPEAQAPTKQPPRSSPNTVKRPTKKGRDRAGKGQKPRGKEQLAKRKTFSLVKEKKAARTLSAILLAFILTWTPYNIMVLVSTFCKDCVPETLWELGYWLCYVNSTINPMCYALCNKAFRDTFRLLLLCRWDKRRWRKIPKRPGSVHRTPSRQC

Structure (SMILES) | TG-3 protein level (TG-3 [1]) | TGase 2 (TGM-2) transcript level [2] | TG-5 protein level (TG-5) | TG-3 protein level (TG-3 [3]) | TG-1 protein level (TG-1) | Kd (hM1) [µM]
CN1[C@@H]2CC[C@H]1C[C@@H](OC(=O)C(CO)c1ccccc1)C2 (stereo partly drawn) [atropine] | increased | reduction; also recorded: down regulated | reduced | increased | reduced | 
C[C@@H]1OC(=O)[C@H]2C[C@H]3CCCC[C@@H]3[C@@H](/C=C/[C@H]3CCC[C@H](C)N3C)[C@@H]12 [himbacine] |  |  |  |  |  | 0.083
